In experiment [1] the test system is Rattus norvegicus. The experiment can be described thus: Oral activity in renal artery ligated rat model was determined; excellent significant activity causing large and sustained fall in blood pressure at a dose of 1 mg/Kg. Format: functional, organism-based.
In experiment [2] the target is T1, Type-1 angiotensin II receptor (Oryctolagus cuniculus) (UniProt P34976).
T1 sequence (whole entry): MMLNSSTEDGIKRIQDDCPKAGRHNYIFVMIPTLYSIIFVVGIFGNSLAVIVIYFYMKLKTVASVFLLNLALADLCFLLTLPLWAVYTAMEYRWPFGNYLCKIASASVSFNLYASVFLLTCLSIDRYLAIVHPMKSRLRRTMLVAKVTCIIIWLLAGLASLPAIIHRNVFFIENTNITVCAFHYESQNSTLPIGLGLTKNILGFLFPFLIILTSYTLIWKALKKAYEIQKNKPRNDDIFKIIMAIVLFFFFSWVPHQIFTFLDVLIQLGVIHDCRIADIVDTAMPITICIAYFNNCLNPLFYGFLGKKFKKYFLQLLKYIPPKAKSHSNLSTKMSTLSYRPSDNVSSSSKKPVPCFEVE
The experiment can be described thus: Affinity for Angiotensin II receptor, type 1 as antagonism of angII contractile effect in rabbit isolated thoracic aorta. The experiment is classed as functional, tissue-based.

For experiment [3], the species on record is Rattus norvegicus. The experiment can be described thus: Oral activity in renal artery ligated rat model was determined; no significant activity. Format: functional, organism-based.

SMILES strings stand for the structures. Calls of active or inactive are those of the source. No cut-off for these calls is given here.

Turning to `CCCCc1nc(Cl)c(C(=O)NCC(=O)OCC)n1Cc1ccc2oc(-c3ccccc3-c3nn[nH]n3)c(Br)c2c1`, in the experiment on Rattus norvegicus [1], the result was Active. Besides, the negative-log KB (pKB) in experiment [2] amounted to 9.3.

With `CCCCc1nc(Cl)c(C(=O)N[C@@H](C(=O)O)[C@H](C)CC)n1Cc1ccc2oc(-c3ccccc3-c3nn[nH]n3)c(Br)c2c1`, the outcome in the experiment listed under Rattus norvegicus [3] was inactive. In addition, in experiment [2], the pKB stood at 9.2.

For `CCCCc1nc(Cl)c(C(=O)N[C@H](C)C(=O)O)n1Cc1ccc2oc(-c3ccccc3-c3nn[nH]n3)c(Br)c2c1`, the result in the experiment filed under Rattus norvegicus [3] was inactive. For the same compound, the pKB in experiment [2] amounted to 9.

On to `CCCCc1nc(Cl)c(C(=O)NCC(N)=O)n1Cc1ccc2oc(-c3ccccc3-c3nn[nH]n3)c(Br)c2c1`, for which the result in the experiment filed under Rattus norvegicus [3] was inactive. This compound showed a negative-log KB (pKB) in experiment [2] of 9.4.

In experiment [2], `CCCCc1ncc(C=C(Cc2cccs2)C(=O)O)n1Cc1ccc2oc(-c3ccccc3-c3nn[nH]n3)c(Br)c2c1` showed a pKB of 10.9.

Consider `CCCCc1nc(Cl)c(C(=O)N[C@H](Cc2ccccc2)C(=O)O)n1Cc1ccc2oc(-c3ccccc3-c3nn[nH]n3)c(Br)c2c1`, for which, in the experiment listed under Rattus norvegicus [3], the result was inactive. This compound also yielded a negative logarithm of the KB (pKB) in experiment [2] of 8.

Regarding `CCCCc1nc(Cl)c(C(=O)NCC(=O)O)n1Cc1ccc2oc(-c3ccccc3-c3nn[nH]n3)c(Br)c2c1`, the result in the experiment filed under Rattus norvegicus [3] was inactive. Moreover, the pKB in experiment [2] worked out at 9.4.

Turning to `CCCCc1nc(Cl)c(C(=O)N[C@@H](C)C(=O)O)n1Cc1ccc2oc(-c3ccccc3-c3nn[nH]n3)c(Br)c2c1`, in the experiment listed under Rattus norvegicus [3], the outcome was inactive. In addition, the pKB in experiment [2] is 8.9.

The record behind these values is ChEMBL document CHEMBL1127120, “Benzofuran based angiotensi II antagonists related to GR117289: Part II; amino acid amides” (Bioorg Med Chem Lett, 1993).
